For orientation: IC50 means the concentration that inhibits the measured activity by half.

From BindingDB's records for doi:10.7270/Q2NS0S8J (University of Pittsburgh, 2007) come the findings set out here.

SMILES strings stand for the structures. Some results are limits rather than exact numbers.

For the experiment, the target named is T1, M-phase inducer phosphatase 2 (Homo sapiens, UniProt P30305).
T1 sequence (P30305 whole entry): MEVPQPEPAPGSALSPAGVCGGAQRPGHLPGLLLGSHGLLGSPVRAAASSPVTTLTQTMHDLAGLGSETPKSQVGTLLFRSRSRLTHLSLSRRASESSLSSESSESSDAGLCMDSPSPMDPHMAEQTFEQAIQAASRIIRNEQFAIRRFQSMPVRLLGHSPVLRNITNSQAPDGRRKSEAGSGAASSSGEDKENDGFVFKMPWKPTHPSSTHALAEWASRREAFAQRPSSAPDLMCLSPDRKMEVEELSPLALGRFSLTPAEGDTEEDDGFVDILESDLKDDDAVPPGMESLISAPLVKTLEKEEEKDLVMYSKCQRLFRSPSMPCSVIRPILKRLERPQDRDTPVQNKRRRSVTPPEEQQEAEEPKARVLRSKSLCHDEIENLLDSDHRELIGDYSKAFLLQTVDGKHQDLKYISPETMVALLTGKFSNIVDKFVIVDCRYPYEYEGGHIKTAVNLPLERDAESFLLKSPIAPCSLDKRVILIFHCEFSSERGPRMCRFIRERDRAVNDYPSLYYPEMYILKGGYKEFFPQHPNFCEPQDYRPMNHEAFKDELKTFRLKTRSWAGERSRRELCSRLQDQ
As to the kind of experiment: Cdc25B phosphatase blockers with beta-mercaptoethanol – biochemical, beta-mercaptoethanol present, catalytic domain, IC50, Cdc25B inhibitor project, late-stage follow-up (AID 670).
The compound `[O-]/[N+](=C\c1ccc(OC(F)F)cc1)c1ccccc1` [1-[4-(difluoromethoxy)phenyl]-N-phenylmethanimine oxide] displayed an IC50 of more than 50 µM.
`O=C1C=Cc2ccccc2C1=O` [1,2-dihydronaphthalene-1,2-dione] returned an IC50 of 20.4 µM.
The result for `O=C(Nc1ccc2nc(-c3ccco3)c(-c3ccco3)nc2c1)N1CCCCCC1` reads 19.2 µM.
In turn, `c1ccc(CSc2nnc(-c3ccco3)c(-c3ccco3)n2)cc1` [MLS-0029114.0001] had an IC50 of 10.3 µM. Compared with the last compound, the IC50 is about 1.9-fold lower.
The figure for `CCOc1ccc2noc3c2c1C(=O)c1ccccc1-3` [MLS000106837] is more than 50 µM.
Compound `Cc1ccc2c(c1)C1C=CCC1C(C(=O)O)N2` (stereo not given) [MLS-0067149.0001] gave an IC50 of 5.2 µM.
The result for `Cc1ccc2c(c1C)NC(C(=O)O)C1CC=CC21` (stereo not given) reads 4.2 µM.
As for `CCn1nc(-c2ccccc2)nc2c(=O)n(C)c(=O)nc1-2` [1-Ethyl-6-methyl-3-phenyl-1H-pyrimido[5,4-e][1,2,4]triazine-5,7-dione], the IC50 was more than 50 µM.
Compound `COc1cccc2c(C)c(C(=O)O)[nH]c12` returned an IC50 of 6.35 µM.
For the compound `CCOC(=O)C(C(=O)OCC)c1cc(Br)c2noc3c2c1C(=O)c1ccccc1-3` [MLS000038842], the IC50 is more than 50 µM.
The result for `COc1ccc2noc3c2c1C(=O)c1ccccc1-3` [MLS000106874] reads more than 50 µM; that for `O=C(O)C1Nc2c(O)cccc2C2C=CCC12` (stereo not given), 7.42 µM.
Take `CC(=O)Nc1cc(OC(C)=O)c2nonc2c1OC(C)=O` [Acetic acid 7-acetoxy-5-acetylamino-benzo[1,2,5]oxadiazol-4-yl ester]: the half-maximal inhibitory concentration (IC50) was more than 50 µM.
Compound `Cc1c(N=c2c(=O)c3ccccc3c2=O)c(=O)n(-c2ccccc2)n1C` [MLS000105950] displayed an IC50 of more than 50 µM.
The result for `O=C(NC1(O)C(=O)c2ccccc2C1=O)c1ccccc1` [N-(2-hydroxy-1,3-dioxo-2-indenyl)benzamide] reads more than 50 µM; that for `N#Cc1c(N)sc(=S)c2c1CCN(Cc1ccccc1)C2` [3-Amino-7-benzyl-1-thioxo-5,6,7,8-tetrahydro-1H-thiopyrano[3,4-c]pyridine-4-carbonitrile], 33.1 µM; that for `O=C1Cc2ccccc2C(=O)N1CCc1ccccc1` [2-(2-phenylethyl)-4H-isoquinoline-1,3-dione], more than 50 µM.
`Cn1ncnc2c(=O)n(C)c(=O)nc1-2` displayed an IC50 of 32.4 µM.
`Nc1cccc2cnccc12` [isoquinolin-5-amine]: the IC50 was more than 50 µM.
As for `CCn1nc(-c2cccs2)nc2c(=O)n(C)c(=O)nc1-2` [1-ethyl-6-methyl-3-thiophen-2-yl-pyrimido[5,4-e][1,2,4]triazine-5,7-dione], the IC50 came to 41.8 µM.
As to `Cc1ccccc1Nc1cc2ccccc2c(O)n1` [3-[(2-methylphenyl)amino]-2H-isoquinolin-1-one], the IC50 is more than 50 µM.
The figure for `COc1ccc(Br)cc1C=c1sc2nc(-c3ccco3)nn2c1=O` [5-[(5-bromanyl-2-methoxy-phenyl)methylidene]-2-(furan-2-yl)-[1,3]thiazolo[3,2-b][1,2,4]triazol-6-one] is 1.78 µM; for `Oc1nc(Nc2ccccc2)cc2ccccc12` [MLS000043701] it is more than 50 µM.
`[O-]/[N+](=C\c1ccncc1)c1ccccc1` came in with an IC50 of more than 50 µM.
Regarding `N#Cc1c(N2CCCC2)nc(N)c2c(N)nc(N3CCCC3)cc12` [SMR000061605], the IC50 is more than 50 µM.
